# Measurements taken from US20250154611A1, “SYSTEMS AND METHODS TO DETECT STEM CELL STRESS AND USES THEREOF” (Wayne State University, priority 2014, published 2025).
# Like-named read-outs stand apart in the source and are kept apart here. Where a SMILES comes first, the peptide text is derived from it. The star is where a group is joined. Cbz = O=C(OCc1ccccc1)*
# Columns and labels:
# TSCs = assay type: cell-based, mouse; conditions: 7 days
# Protocol: (FIG. 10A) TSCs were incubated for 7 days±FGF4 at 20%, 2%, or 0.5% O2 with the mitochondrial activator DCA. TSCs were cultured for 7 days at 20% O2,±FGF4, and with mitochondrial inhibitors antimycin A or cyanide (FIG. 10B). The cells were then lysed and assayed by qPCR for the relative levels of 5 terminal differentiation markers PL1, PL2, Plf, CtsQ, and synTa. The experiment was repeated 3 times and bars show the average±s.e.m., (a) indicates no significant difference and (b) indicates a significant difference (p<0.05) between TSCs with FGF4 removed without or with mitochondrial agonist or antagonist. Where changes in markers are significant (b), the increase or decrease due to mitochondrial agonist or antagonist is shown above the histogram bar.
# RNA isolation and quantitative reverse transcription-PCR (qRT-PCR). […] Briefly, DNase-treated total RNA was isolated following cDNA preparation using QuantiTect Reverse Transcription Kit iScript (Qiagen). Assays were performed using Fast SYBR Green on a System 7500 instrument (Applied Biosystems), and a one-step program for 40 cycles. Each experiment was carried out in triplicate, and all three genes for TSC multipotency were normalized against 18S rRNA.
# To test the necessity and sufficiency of mitochondrial function for TSC differentiation, 2 mitochondrial inhibitors and an agonist were used. The mitochondrial activator dichloroacetate (DCA) was tested at 0.5%-20% O2 (FIG. 10A).
# Cyanide and antimycin A inhibit COX (part of mitochondrial complex IV) and complex III, respectively, and were used to inhibit the ETC and thus the generation of Δψm for 7 days of culture at optimal differentiation conditions (FIG. 10B).
# [1] = test system: mitochondrial membrane potential (ΔΨm)
# Protocol: Mitochondrial staining by MitoTracker dye. TSC were cultured at different O2 levels at least 24 hr stained with DAPI (D21490, Invitrogen) alone or with either MitoTracker Red FM (Invitrogen), TMRM (T668), or JC-1 (T3168, Invitrogen) alone or with the uncoupler FCCP (Sigma), and analyzed under a DM-IRE2 fluorescence microscope (Leica, Germany) using Simple PCI image acquisition software (Hamamatsu, Sewickley, PA).
# In more detail, TSC were cultured on coverslips in 12-well plates at different O2 levels either with or without FGF4, for 48 hr. Before experiments were conducted at low O2 tension, TSC were adapted in a hypoxia chamber (Billups-Rothenberg, CA) at the given O2 level described above for at least 24 hr. Nuclear dye 2.5 μg/ml DAPI (D21490, Invitrogen) was applied as a counterstain 1 hr before TSC were incubated alone with either 50 nM MitoTracker Red FM (M22425m, Invitrogen) for 30 min, 20 nM TMRM (T668) for 30 min, or 3.25 nM JC-1 (T3168, Invitrogen) for 45 min, or in combination with the uncoupler FCCP (1 nM, Sigma, C2920). After staining, the TSC were washed with PBS 2 times and immediately analyzed under a DM-IRE2 fluorescence microscope (Leica, Germany) using Simple PCI image acquisition software (Hamamatsu, Sewickley, PA).
# The roles of FGF4 and O2 on Δψm associated with ATP production was determined. […]
# AKT = target: T1, AKT (Mus musculus, UniProt P31750); assay: phospho-AKT western blot in mESCs under 200 mM sorbitol; assay type: cell-based; conditions: mESCs, 4 hr, 200 mM sorbitol
# T1 construct: endogenous in cells; host or cells: mESC-D3 (ATCC)
# Protocol: (§1) FIG. 14. […] Blots are representative of triplicate experiments. Phospho-proteins and their loading controls are grouped between black lines.
# (§2) FIG. 15. […] Blots are representative of triplicate experiments.
# (§3) Hyperosmotic activation of signaling enzymes. […] Zhong, 2010; Xie, 2011. […] To determine the kinetics of activation of these five kinases in the described system, mESCs were treated with 200 mM sorbitol for 1 hr. Expression levels of the activated (i.e., phosphorylated) enzymes were assayed by western blot analysis (FIG. 14), including phospho-p38MAPK, phospho-JNK, phospho-MEK1/2, and phospho-AKT (the downstream effector of PI3K signaling).
# (§4) Efficacy of enzyme inhibitors.
# [2] = test system: Oct4, Nanog, and Rex1 protein in mESCs; assay: Proteasome inhibitor effects on Oct4, Nanog, and Rex1 during sorbitol stimulation of mESCs; assay type: cell-based, mouse; conditions: 4 hr; for stress-induced loss of Oct4, Nanog, and Rex1: 200 mM sorbitol
# Protocol: FIG. 17. MG132 proteasome inhibitor effects on Oct4, Nanog, and Rex1 during sorbitol stimulation of mESCs. mESCs were treated for 4 hr with 0 or 200 mM sorbitol±10 μM MG132 and then lysed.
# FIGS. 18A-18D. Lactacystin effects on Oct4, Nanog, Rex1 during sorbitol stimulation of mESCs. mESCs were treated for 4 hr±200 mM sorbitol±25, 50 μM lactacystin, then photographed before lysing. […] ANOVA+Student-Newman-Keuls post hoc tests, Oct4 p=0.000; Nanog p=0.035; Rex1 p=0.11. FIG. 18D) mESCs were stressed with or without lactacystin and micrographs were taken at 100×. Scale bar=50 μm.
# Hyperosmotic-stress-induced loss of potency TFs due to proteasomal degradation. To determine the mechanism of TF protein loss during stress, mESCs were treated with one of two proteasome inhibitors, MG132 (FIG. 17) and lactacystin (FIGS. 18A-18D). […] Oct4 loss was reversed by 75%, Nanog by 93%, and Rex1 by 310% in 4 hr of proteasome inhibition by MG132.
# [3] = test system: Oct4, Nanog, and Rex1 expression in mESC; assay: Inhibitor only effects on Oct4, Nanog, and Rex1 expression (western blot); assay type: cell-based, mouse
# ERK1/2 = assay: phospho-ERK1/2 western blot in mESCs under 200 mM sorbitol
# Protocol: Cells were lysed and proteins were fractionated using SDS-PAGE, blotted, and probed for phospho-p38 (Thr180/Tyr182), phospho-JNK (Thr183/Tyr185), phospho-ERK1/2 (Thr202/Tyr204), or phospho-AKT (Ser473). Blots are representative of triplicate experiments.
# Western blot analysis. Sodium dodecyl sulfate-polyacrylamide gel electrophoresis and western immunoblot analysis of mESC lysates were performed as previously described. […] Cells were harvested with cold lysis buffer (Cell Signaling) and protein was quantified by BCA assay (Pierce, Rockford, IL). Ten to twenty micrograms of aliquots were fractionated on 10% polyacrylamide precast gels (Bio-Rad, Hercules, CA), transferred to nitrocellulose membranes (Amersham Biosciences, Aylesbury, UK), probed overnight with primary antibodies, and developed as previously described. […] Protein bands were visualized using the ECL Advance Western Blotting Detection Kit (GE Healthcare, Waukesha, WI), blot was scanned to obtain an electronic image, and intensity of protein bands was quantified using Image J analysis software (rsbweb.nih.gov) and normalized to amido black staining. […] Data are expressed as the change in expression relative to no treatment at time zero.
# [4] = test system: Oct4, Nanog, and Rex1 expression in mESC; assay: TF expression levels during hyperosmotic stress +/- enzyme inhibition in mESC monolayer culture (western blot)
# Protocol: Histograms show relative expression of each protein when normalized to amido black expression. Error flags represent standard error of the mean (n≥3). “*” denotes significant difference from unstressed mESCs. “a” indicates significant difference from stress-only time point. ANOVA and Student-Newman-Keuls post hoc tests (P<0.05).
# (FIG. 20A) mESCs were incubated±200 mM sorbitol for 0-24 hr and ±p38 inhibitor SB202190 (10 μM). mESCs were lysed, and proteins were fractionated using SDS-PAGE, blotted, and probed for Oct4 or Nanog. (FIG. 20B) Phase micrographs of mESCs following 24 hr of culture in the presence/absence of stress and p38MAPK inhibitor, SB202190. Scale bars=50 μm. (FIG. 20C) mESCs were incubated±200 mM sorbitol for 0-24 hr±either U0126 or LY294002 (25 μM). mESCs were lysed and proteins were fractionated using SDS-PAGE, blotted, and probed for Oct4 or Nanog. Histograms show relative expression of each protein when normalized to amido black expression. Error flags represent standard error of the mean (n≥3). “*” denotes significant difference from unstressed mESCs. “a” indicates significant difference from stress-only time point. ANOVA and Student-Newman-Keuls post hoc tests (P<0.05).
# (FIG. 21A) mESCs were incubated±200 mM sorbitol for 0-24 hr±(A) p38MAPK inhibitor SB202190 (10 μM) or PI3K inhibitor LY294002 (25 μM); or JNK inhibitor L-JNKi-1 (2 μM). mESCs were lysed, and proteins were fractionated using SDS-PAGE, blotted, and probed for Rex1. Histograms show relative expression of each protein when normalized to amido black expression. Error flags represent standard error of the mean (n≥3). “*” denotes significant difference from unstressed mESCs. “a” indicates significant difference from stress-only time point. ANOVA and Student-Newman-Keuls post hoc tests (P<0.05). (FIG. 21B) To test the reversibility of the Rex1 loss during sorbitol stress, mESCs were incubated−200 mM sorbitol for 0-4 hr and then sorbitol was removed from some dishes for the remaining 20 hr (lane 5). Histogram is representative of two independent experiments.
# Cell culture and stimulation. mESC-D3 cells (ATCC, Manassas, VA) were cultured in the absence of feeder cells in Dulbecco's modified Eagle's medium (Gibco, Grand Island, NY) supplemented with 15% mESC-screened fetal bovine serum (HyClone, Logan, UT), 2 mM L-glutamine, 1 mM sodium pyruvate, 1 mM nonessential amino acids, 0.1 mM 2-mercaptoethanol (Sigma), and 1,000 U/mL murine leukemia inhibitory factor (LIF; Millipore, Temecula, CA) on 0.1% gelatin-coated dishes at 37° C. in humidified air with 5% CO2. […] Osmolality was determined by freezing point depression using Advanced Instruments Wide Range Osmometer 3W2 (Advanced Instruments, Norwood, MA).
# Enzyme inhibition. Enzyme inhibitors were chosen according to the specificity reported in the kinase inhibitor literature. […] Inhibitor concentrations were determined following dose response experiments for each inhibitor based on the range of concentrations determined from the mESC and kinase inhibitor literature.
# p38MAPK = p38MAPK (Mus musculus, UniProt P47811); assay: phospho-p38 western blot in mESCs under 200 mM sorbitol; assay type: cell-based
# Protocol: as §1, §2, §3, §4
# [5] = test system: Trophoblast stem cells (TSCs); assay: qPCR of lineage and multipotency markers in TSCs with or without SAPK inhibitors at 20, 2 or 0.5% O2; assay type: cell-based, mouse; conditions: TSCs + FGF4, 0.5-20% O2
# Protocol: FIGS. 1A-1C. SAPK mediates decreased Gcm1 and Tpbpa and increased Hand1 at all O2 levels. There are greater effects as O2 deviates from the stemness optimum of 2% O2. Trophoblast stem cells (TSCs) were passaged and cultured at 20, 2, or 0.5% O2 overnight. FGF4 was replenished the next day at time zero, and SAPK inhibitor SP600125 (10 μm or 50 μM) was co-incubated with TSCs for 2 days at the indicated O2 levels±SP600125. Markers were quantitated using qPCR. (FIG. 1B) is a graph derived from data in (FIG. 1A), where the highest inhibited group was subtracted from the uninhibited group at each O2 level (the subtracted difference is shown as a color inset in the histogram bars of highest expression of each marker). […]
# FIG. 2. […] RNA was isolated and quantitated using qPCR.
# Cell lines and culture conditions. […] Quantitative removal of gas phase O2 requires 30 min in anaerobic bags, i.e., there was only a minimal period when 20% O2 was ambient to media that was pre-equilibrated under 0, 0.5, or 2% O2. […]
# RNA isolation and quantitative reverse transcription-PCR (qRT-PCR). […] Briefly, DNase-treated total RNA was isolated following cDNA preparation using QuantiTect Reverse Transcription Kit […] (Qiagen). […]
# [6] = 4 hr, 200 mM sorbitol + PD98059
# [7] = 20% O2, FGF4 removed, sublethal concentration
# T1 sequence (P31750 whole entry): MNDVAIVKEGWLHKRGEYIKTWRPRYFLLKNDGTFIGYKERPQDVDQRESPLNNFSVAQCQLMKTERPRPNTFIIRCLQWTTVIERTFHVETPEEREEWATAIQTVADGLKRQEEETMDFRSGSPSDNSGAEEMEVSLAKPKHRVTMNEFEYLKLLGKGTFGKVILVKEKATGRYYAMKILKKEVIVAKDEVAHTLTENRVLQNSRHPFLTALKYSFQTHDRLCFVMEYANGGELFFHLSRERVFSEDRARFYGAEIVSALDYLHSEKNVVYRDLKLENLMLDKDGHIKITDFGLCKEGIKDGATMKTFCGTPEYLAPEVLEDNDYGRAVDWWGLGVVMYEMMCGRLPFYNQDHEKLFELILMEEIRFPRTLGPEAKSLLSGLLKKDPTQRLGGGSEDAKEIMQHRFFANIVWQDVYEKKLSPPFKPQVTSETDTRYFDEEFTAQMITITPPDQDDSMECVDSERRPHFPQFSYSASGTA
# Chain of p38MAPK (P47811 whole entry): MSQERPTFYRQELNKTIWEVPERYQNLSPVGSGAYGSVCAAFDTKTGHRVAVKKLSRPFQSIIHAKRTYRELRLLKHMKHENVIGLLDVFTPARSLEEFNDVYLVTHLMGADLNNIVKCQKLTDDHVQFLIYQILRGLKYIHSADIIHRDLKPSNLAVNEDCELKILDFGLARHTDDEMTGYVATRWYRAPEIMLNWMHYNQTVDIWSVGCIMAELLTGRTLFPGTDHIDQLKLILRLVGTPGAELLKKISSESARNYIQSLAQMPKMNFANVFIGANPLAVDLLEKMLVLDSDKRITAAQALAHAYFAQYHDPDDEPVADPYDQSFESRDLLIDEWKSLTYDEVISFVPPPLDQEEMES
compound,measurement,setting,value
"O=C(O)C(Cl)Cl [DCA, dichloroacetate]",PL2 mRNA increase,TSCs; 2% O2,2 fold
same,synTa mRNA increase,TSCs; 2% O2,2 fold
"N#CC(C#N)=NNc1ccc(OC(F)(F)F)cc1 [FCCP, Carbonyl cyanide 4-(trifluoromethoxy)phenylhydrazone]",JC1 stain fluorescence,[1],no fluorescence
same,effect on Δψm,[1],completely depolarizes
O=c1cc(N2CCOCC2)oc2c(-c3ccccc3)cccc12 [LY294002],inhibition of AKT activation (average),AKT,88%
CC(C)C[C@@H](C=O)NC(=O)[C@H](CC(C)C)NC(=O)[C@H](CC(C)C)NC(=O)OCc1ccccc1 [MG132] (Cbz-Leu-Leu-Leu-aldehyde),reversal of stress-induced Nanog loss,"[2]; 10 μM MG132, 200 mM sorbitol",93%
same,reversal of stress-induced Oct4 loss,"[2]; 10 μM MG132, 200 mM sorbitol",75%
same,reversal of stress-induced Rex1 loss,"[2]; 10 μM MG132, 200 mM sorbitol",310%
same,"stress-induced loss of Oct4, Nanog, and Rex1",[2],prevented
COc1cccc(-c2cc(=O)c3ccccc3o2)c1N [PD98059],"Nanog protein expression, inhibitor only","[3]; 24 hr inhibitor only, vs 24 hr no inhibitor, AKTi 10, LY294002 10, L-JNKi-1 2, SB202190 10, U0126 40, PD98059 20 μM",*1.54 ± 0.10%
same,inhibition of ERK1/2 activation (average),"ERK1/2; mESCs, 4 hr, 200 mM sorbitol",30%
same,Nanog expression relative to unstressed level,[4]; [6],2.5 times
same,expression of Oct4 and Rex1,[4]; [6],remained at the unstressed baseline
same,Oct4 recovery,"[4]; 24 hr, 200 mM sorbitol + inhibitor",did not prevent
Oc1ccc(-c2nc(-c3ccncc3)c(-c3ccc(F)cc3)[nH]2)cc1 [SB202190],inhibition of p38MAPK activation (average),p38MAPK,60%
same,Nanog expression,"[4]; 24 hr ongoing stress, 200 mM sorbitol + SB202190",10%
same,Oct4 expression,"[4]; 24 hr, 200 mM sorbitol + SB202190, did not recover from 4-h nadir",50 % of unstressed levels
Oc1c2ccccc2c2c3c(cccc13)N=N2 [SP600125],"multipotency factors Cdx2, Id2, Errβ mRNA",[5],no effect
N#CC(=C(/N)Sc1ccccc1N)/C(C#N)=C(\N)Sc1ccccc1N [U0126],"Nanog protein expression, inhibitor only",[3],0.94 ± 0.15%
same,"Oct4 protein expression, inhibitor only",[3],1.16 ± 0.31%
same,"Rex1 protein expression, inhibitor only",[3],0.72 ± 0.06%
same,inhibition of ERK1/2 activation (average),ERK1/2,87%
same,Oct4 or Nanog loss during stress,[4],did not prevent
same,Oct4 recovery,[4],prevented
same,Rex1 expression,[4],remained at unstressed levels
CC(=O)N[C@@H](CSC(=O)[C@]1([C@@H](O)C(C)C)NC(=O)[C@H](C)[C@@H]1O)C(=O)O [lactacystin],"stress-induced loss of Oct4, Nanog, and Rex1",[2],prevented
antimycin A,Ctsq mRNA inhibited,TSCs; [7],81%
same,PL2 mRNA inhibited,TSCs; [7],98%
same,synTa mRNA inhibited,TSCs; [7],42%
